Laboratory results: patent US12486254B2, “Uracil derivatives for stimulating read-through of premature termination codons” (Southern Research Institute, priority 2022, dated 2025)
Where “and” joins values, the source holds several entries; their conditions need not be identical. Equal values may be shown once.

What was measured:
W134X-CF#14 FRT = experiment: Read-through of a premature termination codon, W134X-CF#14 FRT data, with G418; assay type: cell-based; conditions: in presence of G418
Description: (§1) The compounds shown in Table 1 were evaluated for their ability to stimulate read-through of a premature termination codon, and their respective activities are shown in Tables 2 and 3 below.

G542X#10-HBE5x5 = experiment: Read-through of a premature termination codon, G542X#10-HBE5x5 (Table 3); assay type: cell-based; conditions: with G418
Description: as §1

| EC50 (W134X-CF#14 FRT) | EC50 (G542X#10-HBE5x5) | Compound |
| --- | --- | --- |
| 35.7 µM | 26.2 µM | CCn1c(=O)c(C(=O)CNc2ccccc2C(N)=O)c(N)n(Cc2ccc(F)cc2)c1=O [1.207] |
| 56.1 µM | ≥ 100 µM | CCn1c(=O)c(C(=O)CN2CCCCC2c2nc(C)no2)c(N)n(Cc2ccccc2)c1=O (stereo not shown) [1.86] |
| 83.2 µM | ≥ 100 µM | CCOC(=O)C1CCCCN1CC(=O)c1c(N)n(Cc2ccccc2)c(=O)n(CC)c1=O (stereo not shown) [1.22] |
| 8.49 µM | ≥ 100 µM | CCn1c(=O)c(C(=O)CN2CCCCC2C(C)C)c(N)n(Cc2ccc(F)cc2)c1=O (stereo not shown) [1.175] |
| 22.7 µM | ≥ 100 µM | CCn1c(=O)c(C(=O)CN2CCC(c3ccccc3)C2)c(N)n(Cc2ccccc2)c1=O (stereo not shown) [1.3] |
| 3.26 µM | ≥ 100 µM | CCn1c(=O)c(C(=O)CN2CCCC[C@@H]2c2nccn2C)c(N)n(Cc2ccc(F)cc2)c1=O [1.190] |
| 109 µM | ≥ 100 µM | CCn1c(=O)c(C(=O)CN(C)Cc2ccc(C(=O)NC)cc2)c(N)n(Cc2ccccc2)c1=O [1.2] |
| 58.5 µM | ≥ 100 µM | CCn1c(=O)c(C(=O)CN2CCCCC2C(=O)N2CCN(C)CC2)c(N)n(Cc2ccccc2)c1=O (stereo not shown) [1.96] |
|  | ≥ 100 µM | CCn1c(=O)c(C(=O)CN2CCc3cccc(C(=O)OC)c3C2)c(N)n(Cc2ccc(F)cc2)c1=O [1.220] |
|  | ≥ 100 µM | CCn1c(=O)c(C(=O)CN2CCCC[C@@H]2C(N)=O)c(N)n([C@H](C)c2ccccc2)c1=O [1.125] |
|  | ≥ 100 µM | CCn1c(=O)c(C(=O)CNc2ccc(C)cc2)c(N)n(Cc2ccc(F)cc2)c1=O [1.227] |
|  | ≥ 100 µM | CCn1c(=O)c(C(=O)CN2CCCC[C@@H]2C(=O)N2CCC(F)(F)CC2)c(N)n(Cc2ccc(F)cc2)c1=O [1.168] |
|  | 30 µM | NC(=O)C1CCCCN1CC(=O)c1c(N)n(Cc2ccccc2)c(=O)n(Cc2ccccc2)c1=O (stereo not shown) [1.50] |
| 65.1 µM | ≥ 100 µM | CCn1c(=O)c(C(=O)CN2CCCCC2CN(C)C)c(N)n(Cc2ccc(F)cc2)c1=O (stereo not shown) [1.177] |
|  | 48.5 µM | CCn1c(=O)c(C(=O)CN(c2cccc(C(N)=O)c2)C(C)C)c(N)n(Cc2ccc(F)cc2)c1=O [1.219] |
|  | ≥ 100 µM | CCn1c(=O)c(C(=O)CN2CCCc3c(C(N)=O)cccc32)c(N)n(Cc2ccc(F)cc2)c1=O [1.223] |
|  | ≥ 30 µM | CCn1c(=O)c(C(=O)CN2CCCC[C@@H]2C(N)=O)c(N)n(Cc2nccn2C)c1=O [2.15] |
|  | ≥ 100 µM | CCn1c(=O)c(C(=O)CN2CCOCC2)c(N)n(Cc2ccccc2)c1=O [1.11] |
| 1.56 µM | ≥ 100 µM | CCn1c(=O)c(C(=O)CN2CCCC[C@@H]2c2ncc[nH]2)c(N)n(Cc2ccc(F)cc2)c1=O [1.196] |
| 3.19 µM | 50 µM | NC(=O)[C@H]1CCCCN1CC(=O)c1c(N)n(Cc2ccc(F)cc2)c(=O)n(Cc2ccc(F)cc2)c1=O [1.47, (2R)-1-[2-[4-amino-1,3-bis[(4-fluorophenyl)methyl]-2,6-dioxo-pyrimidin-5-yl]-2-oxo-ethyl]piperidine-2-carboxamide] |
|  | ≥ 100 µM | NC(=O)[C@H]1CCCCN1CC(=O)c1c(N)n(Cc2ccc(F)cc2)c(=O)n(CC2CC2)c1=O [1.218] |
| 3.46 µM | ≥ 100 µM | CCn1c(=O)c(C(=O)CN2CCCCC2C(N)=O)c(N)n(Cc2cccs2)c1=O (stereo not shown) [1.112] |
|  | ≥ 30 µM | CCn1c(=O)c(C(=O)CN2CCCC[C@@H]2C(N)=O)c(N)n(-c2cccc(F)c2)c1=O [2.16] |

| EC50 (W134X-CF#14 FRT) | EC50 (G542X#10-HBE5x5) | Compound |
| --- | --- | --- |
|  | 25 µM | NC(=O)C1CCCCN1CC(=O)c1c(N)n(Cc2cccc(Cl)c2)c(=O)n(Cc2cccc(Cl)c2)c1=O (stereo not shown) [1.104] |
|  | ≥ 30 µM | CCn1c(=O)c(C(=O)CN2CCCC[C@@H]2C(N)=O)c(N)n(CCc2ccc(F)cc2)c1=O [2.7] |
|  | ≥ 100 µM | CCn1c(=O)c(C(=O)CN(CC(N)=O)C(C)C)c(N)n(Cc2ccccc2)c1=O [1.1] |
|  | ≥ 100 µM | CCn1c(=O)c(C(=O)CNCCC(N)=O)c(N)n(Cc2ccc(F)cc2)c1=O [1.201] |
|  | ≥ 30 µM | CCn1c(=O)c(C(=O)CN2CCCC[C@@H]2C(N)=O)c(N)n(Cc2ccc(OC(C)C)cc2)c1=O [2.14] |
|  | ≥ 100 µM | CCOC(=O)C1CCN(CC(=O)c2c(N)n(Cc3ccccc3)c(=O)n(CC)c2=O)CC1 [1.6] |
|  | ≥ 100 µM | CCn1c(=O)c(C(=O)CN2CCC(O)CC2C(N)=O)c(N)n(Cc2ccc(F)cc2)c1=O (stereo not shown) [1.221] |
|  | ≥ 30 µM | CCn1c(=O)c(C(=O)CN2CCCC[C@@H]2C(N)=O)c(N)n(Cc2ccc(C#N)cc2F)c1=O [2.23] |
|  | ≥ 100 µM | CCn1c(=O)c(C(=O)CN[C@@H](Cc2cnc[nH]2)C(=O)OC)c(N)n(Cc2ccccc2)c1=O [1.17] |
|  | ≥ 100 µM | CC(C)N(CC(=O)c1c(N)n(Cc2ccc(F)cc2)c(=O)n(Cc2ccc(F)cc2)c1=O)CC(=O)N(C)C [1.74] |
|  | ≥ 30 µM | CCn1c(=O)c(C(=O)CN2CCCC[C@@H]2C(N)=O)c(N)n(Cc2ccc(C(F)(F)F)nc2)c1=O [2.24] |
|  | ≥ 100 µM | CCn1c(=O)c(C(=O)CN2CCCCC2C(=O)N(C)C)c(N)n(Cc2ccccc2)c1=O (stereo not shown) [1.67] |
|  | ≥ 100 µM | CCn1c(=O)c(C(=O)CN2CCCCC2C(=O)N2CCOCC2)c(N)n(Cc2ccccc2)c1=O (stereo not shown) [1.87] |
|  | ≥ 100 µM | CCn1c(=O)c(C(=O)CN2CCCNC2=O)c(N)n(Cc2ccc(F)cc2)c1=O [1.212] |
|  | ≥ 100 µM | CCn1c(=O)c(C(=O)CNC(CN2CCCC2=O)c2ccccc2)c(N)n(Cc2ccc(F)cc2)c1=O (stereo not shown) [1.181] |
|  | ≥ 100 µM | CCn1c(=O)c(C(=O)CN2CCCc3ccc(C(N)=O)cc32)c(N)n(Cc2ccc(F)cc2)c1=O [1.224] |
|  | ≥ 100 µM | CCn1c(=O)c(C(=O)CN2CCCC[C@@H]2C(=O)N2CCOCC2)c(N)n(Cc2ccc(F)cc2)c1=O [1.130] |
|  | ≥ 30 µM | CCn1c(=O)c(C(=O)CN2CCCC[C@@H]2C(N)=O)c(N)n(Cc2cccc(F)c2)c1=O [2.10] |
|  | ≥ 100 µM | CCn1c(=O)c(C(=O)CN2CCc3cccc(C(N)=O)c3C2)c(N)n(Cc2ccc(F)cc2)c1=O [1.222] |
|  | ≥ 100 µM | CCOC(=O)CN(CC(=O)c1c(N)n(Cc2ccccc2)c(=O)n(CC)c1=O)C(C)C [1.18, ethyl 2-((2-(6-amino-1-benzyl-3-ethyl-2,4-dioxo-1,2,3,4-tetrahydropyrimidin-5-yl)-2-oxoethyl)(isopropyl)amino)acetate] |
|  | ≥ 30 µM | CCn1c(=O)c(C(=O)CN2CCCC[C@@H]2C(N)=O)c(N)n(Cc2ccccc2F)c1=O [2.3] |
|  | ≥ 30 µM | CCn1c(=O)c(C(=O)CN2CCCC[C@@H]2C(=O)OC)c(N)n(Cc2ccc(F)cc2)c1=O [2.2] |
|  | ≥ 100 µM | CCn1c(=O)c(C(=O)CN2CCCCC2C(N)=O)c(N)n(Cc2ccccc2)c1=O (stereo not shown) [1.48] |

| EC50 (W134X-CF#14 FRT) | EC50 (G542X#10-HBE5x5) | Compound |
| --- | --- | --- |
|  | ≥ 30 µM | CCn1c(=O)c(C(=O)CN2CCCC[C@@H]2C(=O)NC)c(N)n(Cc2ccc(F)cc2)c1=O [2.6] |
|  | ≥ 100 µM | CCn1c(=O)c(C(=O)CN2CCCC[C@@H]2C(N)=O)c(N)n(Cc2ccc(O)cc2)c1=O [1.217] |
|  | ≥ 100 µM | CCn1c(=O)c(C(=O)CN2CCNC(=O)C2)c(N)n(Cc2ccc(F)cc2)c1=O [1.209] |
|  | ≥ 100 µM | CCn1c(=O)c(C(=O)CNC2CCC(=O)NC2=O)c(N)n(Cc2ccc(F)cc2)c1=O (stereo not shown) [1.226] |
|  | ≥ 100 µM | CCCNC(=O)CN(C)CC(=O)c1c(N)n(Cc2ccccc2)c(=O)n(C)c1=O [1.42] |
|  | ≥ 100 µM | CCN(CC)C(=O)C1CCCN(CC(=O)c2c(N)n(Cc3ccccc3)c(=O)n(CC)c2=O)C1 (stereo not shown) [1.66] |
|  | ≥ 100 µM | CCn1c(=O)c(C(=O)CN(C)C(C)C)c(N)n(Cc2ccccc2)c1=O [1.20] |
|  | ≥ 30 µM | CCn1c(=O)c(C(=O)CN2CCCC[C@@H]2C(N)=O)c(N)n(Cc2ccc(C#N)c(F)c2)c1=O [2.20] |
|  | 62.9 µM | CN(C)C(=O)C1CCCCN1CC(=O)c1c(N)n(Cc2ccc(F)cc2)c(=O)n(Cc2ccc(F)cc2)c1=O (stereo not shown) [1.73] |
|  | ≥ 100 µM | CCn1c(=O)c(C(=O)CN2CCCCC2C(N)=O)c(N)n(Cc2ccc(F)cc2)c1=O (stereo not shown) [1.103] |
|  | ≥ 30 µM | CC(C)n1c(=O)c(C(=O)CN2CCCC[C@@H]2C(N)=O)c(N)n(Cc2ccc(F)cc2)c1=O [2.13] |
|  | 50.5 µM | CCn1c(=O)c(C(=O)CN(CC(N)=O)C(C)C)c(N)n(Cc2ccc(F)cc2)c1=O [1.133] |
|  | ≥ 100 µM | CCn1c(=O)c(C(=O)CN2CCCN(C)C2=O)c(N)n(Cc2ccc(F)cc2)c1=O [1.215] |
|  | ≥ 30 µM | CCn1c(=O)c(C(=O)CN2CCCC[C@@H]2C(N)=O)c(N)n(Cc2ccc(F)c(Cl)c2)c1=O [2.17] |
|  | ≥ 100 µM | NC(=O)C1CCCCN1CC(=O)c1c(N)n(-c2ccc(F)cc2)c(=O)n(Cc2ccccc2)c1=O (stereo not shown) [1.65] |
|  | ≥ 30 µM | CCn1c(=O)c(C(=O)CN2CCCC[C@H]2C(N)=O)c(N)n(Cc2ccc(F)cc2)c1=O [2.1] |
|  | ≥ 30 µM and 18.2 µM | CCn1c(=O)c(C(=O)CN2CCCC[C@@H]2C(N)=O)c(N)n(Cc2ccc(F)cc2F)c1=O [2.11] |
|  | ≥ 30 µM | CCn1c(=O)c(C(=O)CN2CCCC[C@@H]2C(N)=O)c(N)n(Cc2ccc(F)nc2)c1=O [2.21] |
|  | ≥ 100 µM | CCn1c(=O)c(C(=O)CNC2CCOCC2)c(N)n(Cc2ccccc2)c1=O [1.10] |
|  | ≥ 100 µM | CCn1c(=O)c(C(=O)CN(C)C)c(N)n(Cc2cc(Cl)c(F)cc2F)c1=O [1.198] |
|  | ≥ 100 µM | CCn1c(=O)c(C(=O)CN2CCCC[C@@H]2C(=O)N(C)C)c(N)n(Cc2ccc(F)cc2)c1=O [1.126] |
